These results are taken from patent publication US9532997B2, “Compositions and methods for promoting intestinal stem cell function” (Whitehead Institute for Biomedical Research, priority 2012, dated 2017).

One test relates to Lgr5^hi ISCs. In words: Frequency of Lgr5hi ISCs by flow cytometry in rapamycin-treated mice. Type of test: in vivo. The following applies: Rapamycin 4 mg/kg daily i.p., 4 weeks, n=13-14, FIG. 3g. The source says:
(§1) Mice were housed in the Unit for Laboratory Animal Medicine at the Whitehead Institute for Biomedical Research. Lgr5-EGFP-IRES-CreERT2 mice (Strain name: B6.129P2-Lgr5tm1(cre/ERT2)Cle/J, Stock Number: 008875) were purchased from Jackson Laboratories. UbiquitinC-CreERT2 mice were obtained from the Jackson Laboratory (Strain Name: B6; 129S-Tg(UBC-cre/ERT2)1Ejb/J, Stock Number: 007001). Rictor floxed mice were generated as described in^27 and backcrossed to C57BL/6 for at least 6 generations. TSC1^loxp/loxp mice were the generous gift of D. Kwiatkowski (Harvard Medical School) and backcrossed to C57BL/6 for at least 6 generations. Rosa26-CreERT2 mice (Rosa26 or R26) were obtained from the Jackson Laboratory (Strain 15 Name: B6.129-Gt(ROSA)26Sor^iml(cre/ERT2)Tyj/J, Stock Number 008463). CR was achieved by providing individual or paired mice a daily portion of a chow diet fortified with vitamins and minerals amounting to 60% of the daily food intake of their ad libitum counterparts^20. All adult mice used in CR experiments were between the ages of 10 to 24 weeks and were sacrificed prior to their daily feeding. Rictor or TSC1 was excised by treatment with tamoxifen suspended in corn or sunflower seed oil (Spectrum) at a concentration of 10 mg/mL, and 200 μl per 25 g of body weight was injected intraperitoneally into mice once daily for 5-7 days. […]

The next test deals with Paneth cells. In words: Frequency of Paneth cells by flow cytometry in rapamycin-treated mice. Type of test: in vivo. The conditions noted are these: Rapamycin 4 mg/kg daily i.p., 4 weeks, n=13-14, FIG. 3h.
Source text: as §1

The target of another test is T1, mTORC1 (Mus musculus, UniProt P26883+Q9JLN9).
T1 construct: from tissue; host or cells: mouse small intestine sections, isolated crypts and sorted Paneth cells
As to the kind of experiment: Phospho-S6 (P-S6) immunostain as mTORC1 reporter in intestine / sorted Paneth cells. Type of test: in vivo, mice. The conditions noted are these: overnight fasted mice treated before refeeding 5 hours, FIG. 2a. The source says: Mice were housed in the Unit for Laboratory Animal Medicine at the Whitehead Institute for Biomedical Research. Lgr5-EGFP-IRES-CreERT2 mice (Strain name: B6.129P2-Lgr5tm1(cre/ERT2)Cle/J, Stock Number: 008875) were purchased from Jackson Laboratories. UbiquitinC-CreERT2 mice were obtained from the Jackson Laboratory (Strain Name: B6; 129S-Tg(UBC-cre/ERT2)1Ejb/J, Stock Number: 007001). Rictor floxed mice were generated as described in^27 and backcrossed to C57BL/6 for at least 6 generations. TSC1^loxp/loxp mice were the generous gift of D. Kwiatkowski (Harvard Medical School) and backcrossed to C57BL/6 for at least 6 generations. Rosa26-CreERT2 mice (Rosa26 or R26) were obtained from the Jackson Laboratory (Strain 15 Name: B6.129-Gt(ROSA)26Sor^iml(cre/ERT2)Tyj/J, Stock Number 008463). CR was achieved by providing individual or paired mice a daily portion of a chow diet fortified with vitamins and minerals amounting to 60% of the daily food intake of their ad libitum counterparts^20. All adult mice used in CR experiments were between the ages of 10 to 24 weeks and were sacrificed prior to their daily feeding. Rictor or TSC1 was excised by treatment with tamoxifen suspended in corn or sunflower seed oil (Spectrum) at a concentration of 10 mg/mL, and 200 μl per 25 g of body weight was injected intraperitoneally into mice once daily for 5-7 days. […] Mice were allowed to recover for at least 7 days after the last tamoxifen injection prior to any experiments. In vivo fate mapping in Lgr5-EGFP-IRES-reERT2; Rosa26loxpstoploxp-LacZ compound mice was done with a single injection of tamoxifen given at 200 μl per 25 g. As described previously^28, Rapamycin (LC Laboratories) was administered by intraperitoneal injection for 7 to 28 consecutive doses at 4 mg/kg. It was reconstituted in absolute ethanol at 10 mg/ml and diluted in 5% Tween-80 (Sigma) and 5% PEG-400 (Hampton Research) before injection. The final volume of all injections was 200 μl. Regular insulin (Lilly) was administered at 0.75 U/kg diluted in PBS 20 minutes prior to sacrificing fasted mice. […]

A further test deals with Bst-1. As to the kind of experiment: Bst-1 protein expression by immunoblots of crypts and immunostains of Paneth cells. The class given is in vivo, mice. The conditions noted are these: FIG. 4c. On the procedure: (§2) Tissues were fixed in 10% formalin, paraffin embedded, and sectioned. Antigen retrieval was performed with Borg Decloaker RTU solution (Biocare Medical) in a pressurized Decloaking Chamber (Biocare Medical) for 3 minutes. Antibodies: rat anti-BrdU (1:2000; Abeam 6326), rabbit phospho-S6 Ser235/236 (1:500, CST 4858), rabbit cleaved caspase 3 (1:500; CST 9664), rabbit chromogranin A (1:3000, Abeam 15160), rabbit Lysozyme (1:2000; Thermo), rabbit Bst-1 (1:1000, Abeam 74301) and mouse Bst-1 (1:100 to 500, BD Pharmingen). For mouse Bst-1, the M.O.M (mouse on mouse) kit was used according to the manufacturer's instructions (Vector labs PK-2200). Biotin conjugated secondary donkey anti-rabbit or rat antibodies were used from Jackson ImmunoResearch. The Vectastain Elite ABC immunoperoxidase detection kit (Vector Labs PK-6101) followed by Dako Liquid DAB+ Substrate (Dako) was used for visualization. For immunofluorescence Alexa Fluor 568 secondary antibodies (Invitrogen) were used. All antibody incubations were performed with Common Antibody Diluent (Biogenex).
Antibodies: rabbit anti phospho-T389 S6K1, phospho-S240/244 S6, S6K1, and S6 from CST; rabbit Bst-1 (ab74301) from Abeam; mouse anti_-actin (clone AC-15) from Sigma. […] Proteins extracts were denatured by the addition of sample buffer, boiled for […], resolved by SDS-PAGE, and analyzed by immunoblotting.

In test [1] the test system is enteroendocrine and goblet cells. In words: Enteroendocrine (chromogranin A) and goblet cell (Alcian blue) differentiation. Type of test: in vivo, mice. The following applies: FIG. 6a-b. The method, then:
as §2

For `CO[C@H]1C[C@@H]2CC[C@@H](C)[C@@](O)(O2)C(=O)C(=O)N2CCCC[C@H]2C(=O)O[C@H]([C@H](C)C[C@@H]2CC[C@@H](O)[C@H](OC)C2)CC(=O)[C@H](C)/C=C(\C)[C@@H](O)[C@@H](OC)C(=O)[C@H](C)C[C@H](C)/C=C/C=C/C=C/1C` [Rapamycin, sirolimus], the “increase in frequency of ISCs vs vehicle” value in the test with Lgr5^hi ISCs is given as “more than 1.5 fold”. Besides, in the test with Paneth cells, the “increase in frequency of Paneth cells vs vehicle” value is given as “more than 1.5 fold”. Also, at mTORC1, the “mTORC1 activation (P-S6) in Paneth cells by feeding” value is “blocked this activation”. The Bst-1 protein expression result in the test with Bst-1 (crypts (immunoblots) and Paneth cells (immunostains) of treated mice, d) is listed as “increased”. In the test on Bst-1 (immunoblots of crypts), the “SDS-PAGE mobility of Bst-1” value is recorded as “affected the SDS-PAGE mobility of Bst-1”. Besides, the “effects on enteroendocrine and goblet cell differentiation” value in test [1] is reported as “minimal effects”.
